Target: TLR2 (Homo sapiens, UniProt O60603)
Experiment: TLR2 agonist screening assay, HEK-Blue TLR2 reporter cell line (NF-kB-driven SEAP, absorbance at 600 nm)
Type: cell-based
Design: host or cells: HEK-293 (HEK-Blue TLR2 reporter cell line)
Conditions: HEK-Blue TLR2 reporter cells, agonist mode
Summary of the method: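 EC50 values come from 600 nm absorbance of SEAP-converted substrate after overnight agonist exposure. The reporter line was HEK-293 engineered with TLR2 and an NF-kB-SEAP construct, seeded at about 40,000 cells per well 16-24 h beforehand. Compounds were added at 1% final DMSO.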

TLR2, sequence (O60603 21-784): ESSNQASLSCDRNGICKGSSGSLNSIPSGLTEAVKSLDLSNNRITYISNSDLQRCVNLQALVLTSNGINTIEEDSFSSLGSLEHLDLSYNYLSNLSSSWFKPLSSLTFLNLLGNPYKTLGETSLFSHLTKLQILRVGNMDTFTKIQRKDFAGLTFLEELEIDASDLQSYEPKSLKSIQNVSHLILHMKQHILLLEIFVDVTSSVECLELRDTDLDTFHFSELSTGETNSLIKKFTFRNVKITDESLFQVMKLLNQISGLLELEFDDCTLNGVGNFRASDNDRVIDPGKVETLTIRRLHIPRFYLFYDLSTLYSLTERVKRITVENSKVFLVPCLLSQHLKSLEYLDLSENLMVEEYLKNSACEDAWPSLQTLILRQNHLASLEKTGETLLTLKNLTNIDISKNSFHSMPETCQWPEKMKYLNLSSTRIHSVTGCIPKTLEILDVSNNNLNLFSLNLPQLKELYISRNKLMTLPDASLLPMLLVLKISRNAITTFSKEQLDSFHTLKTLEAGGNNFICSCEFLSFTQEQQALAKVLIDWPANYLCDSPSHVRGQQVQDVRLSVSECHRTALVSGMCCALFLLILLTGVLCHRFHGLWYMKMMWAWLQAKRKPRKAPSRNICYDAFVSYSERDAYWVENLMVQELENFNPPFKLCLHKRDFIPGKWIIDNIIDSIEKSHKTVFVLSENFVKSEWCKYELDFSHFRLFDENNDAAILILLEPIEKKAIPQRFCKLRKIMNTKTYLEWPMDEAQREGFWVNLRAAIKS

EC50 (average of all runs (Table 4)) | EC50 (average of all runs (Table 3)) | SMILES
> 1000 nM | – | CCCCCCCC(=O)N1CCCN(S(=O)(=O)c2cccc(C(=O)N3C[C@@H](C(=O)N[C@H]4C[C@@H]4c4ccccc4)[C@H](C(=O)N[C@H]4C[C@@H]4c4ccccc4)C3)c2)C[C@H]1C(=O)NCCCCCC (single isomer, unassigned) [Compound 200]
51 to 350 nM | – | CCCCCCCCCC(=O)N[C@@H](CN1Cc2ccc(C(=O)N3C[C@@H](C(=O)N[C@H]4C[C@@H]4c4ccccc4)[C@H](C(=O)N[C@H]4C[C@@H]4c4ccccc4)C3)cc2C1=O)C(=O)NCCCCCC [Compound 241, (3S,4S)-1-(2-((S)-2-decanamido-3-(hexylamino)-3-oxopropyl)-3-oxoisoindoline-5-carbonyl)-N3,N4-bis((1S,2R)-2-phenylcyclopropyl)pyrrolidine-3,4-dicarboxamide]
351 to 1000 nM | – | O=C1CCCCCCCCCCCCNC(=O)[C@H](CNC(=O)c2ccc(C(=O)N3C[C@@H](C(=O)N[C@H]4C[C@@H]4c4ccccc4)[C@H](C(=O)N[C@H]4C[C@@H]4c4ccccc4)C3)cc2)N1 [Compound 225, (3S,4S)-1-(4-((((S)-3,17-dioxo-1,4-diazacycloheptadecan-2-yl)methyl)carbamoyl)benzoyl)-N3,N4-bis((1S,2R)-2-phenylcyclopropyl)pyrrolidine-3,4-dicarboxamide]
351 to 1000 nM | – | CCCCCCN1C(=O)[C@H](CCCCC)NC(=O)[C@@H]1CNC(=O)c1ccc(C(=O)N2C[C@@H](C(=O)N[C@H]3C[C@@H]3c3ccccc3)[C@H](C(=O)N[C@H]3C[C@@H]3c3ccccc3)C2)cc1 [Compound 159]
351 to 1000 nM | – | CCCCCCCCCC(=O)N[C@@H](Cc1nnc(-c2ccc(C(=O)N3C[C@@H](C(=O)N[C@H]4C[C@@H]4c4ccccc4)[C@H](C(=O)N[C@H]4C[C@@H]4c4ccccc4)C3)cc2)o1)C(=O)NCCCCCC [Compound 259, (3S,4S)-1-(4-(5-((S)-2-decanamido-3-(hexylamino)-3-oxopropyl)-1,3,4-oxadiazol-2-yl)benzoyl)-N3,N4-bis((1S,2R)-2-phenylcyclopropyl)pyrrolidine-3,4-dicarboxamide]
> 1000 nM | – | CCCCCCCCCCCCCCNC(=O)[C@H]1CN(C(=O)c2cccc(C(=O)N3C[C@@H](C(=O)N[C@H]4C[C@@H]4c4ccccc4)[C@H](C(=O)N[C@H]4C[C@@H]4c4ccccc4)C3)c2)CCN1C(C)=O [Compound 172, (3S,4S)-1-(3-((R)-4-acetyl-3-(tetradecylcarbamoyl)piperazine-1-carbonyl)benzoyl)-N3,N4-bis((1S,2R)-2-phenylcyclopropyl)pyrrolidine-3,4-dicarboxamide]
351 to 1000 nM | – | CCCCCCCCCC(=O)N[C@@H](COCc1ccc(C(=O)N2C[C@@H](C(=O)N[C@H]3C[C@@H]3c3ccccc3)[C@H](C(=O)N[C@H]3C[C@@H]3c3ccccc3)C2)cc1)C(=O)NCCCCCC [Compound 263, (3S,4S)-1-(4-(((S)-2-decanamido-3-(hexylamino)-3-oxopropoxy)methyl)benzoyl)-N3,N4-bis((1S,2R)-2-phenylcyclopropyl) pyrrolidine-3,4-dicarboxamide]
> 1000 nM | – | CCCCCCCCCCCCCCCN1C[C@H](NC(=O)c2ccc(C(=O)N3C[C@@H](C(=O)N[C@H]4C[C@@H]4c4ccccc4)[C@H](C(=O)N[C@H]4C[C@@H]4c4ccccc4)C3)cc2)CCC1=O [Compound 169, (3S,4S)-1-(4-(((R)-6-oxo-1-pentadecylpiperidin-3-yl)carbamoyl)benzoyl)-N3,N4-bis((1S,2R)-2-phenylcyclopropyl)pyrrolidine-3,4-dicarboxamide]
51 to 350 nM | – | CCCCCCCCCCCCCCNC(=O)[C@@H]1CN(S(=O)(=O)c2cccc(C(=O)N3C[C@@H](C(=O)N[C@H]4C[C@@H]4c4ccccc4)[C@H](C(=O)N[C@H]4C[C@@H]4c4ccccc4)C3)c2)CCN1C(C)=O [Compound 193, (3S,4S)-1-(3-(((S)-4-acetyl-3-(tetradecylcarbamoyl)piperazin-1-yl)sulfonyl)benzoyl)-N3,N4-bis((1S,2R)-2-phenylcyclopropyl)pyrrolidine-3,4-dicarboxamide]
351 to 1000 nM | – | CCCCCCCCCCCCCNC(=O)N[C@H]1CN(c2ncc(-c3ccc(C(=O)N4C[C@@H](C(=O)N[C@H]5C[C@@H]5c5ccccc5)[C@H](C(=O)N[C@H]5C[C@@H]5c5ccccc5)C4)cc3)s2)C[C@@H]1OC [Compound 244, (3S,4S)-1-(4-(2-((3S,4S)-3-methoxy-4-(3-tridecylureido)pyrrolidin-1-yl)thiazol-5-yl)benzoyl)-N3,N4-bis((1S,2R)-2-phenylcyclopropyl)pyrrolidine-3,4-dicarboxamide]

Continued, compound first:

SMILES | EC50 (average of all runs (Table 4)) | EC50 (average of all runs (Table 3))
CCCCCCCO[C@@H]1CN(C(=O)c2ccc(C(=O)N3C[C@@H](C(=O)N[C@H]4C[C@@H]4c4ccccc4)[C@H](C(=O)N[C@H]4C[C@@H]4c4ccccc4)C3)cc2)C[C@H]1NC(=O)CCCCCC [Compound 155, (3S,4S)-1-(4-((3R,4R)-3-heptanamido-4-(heptyloxy)pyrrolidine-1-carbonyl)benzoyl)-N3,N4-bis((1S,2R)-2-phenylcyclopropyl)pyrrolidine-3,4-dicarboxamide] | > 1000 nM | –
CCCCCCNC(=O)[C@H](CNC(=O)c1ccc(C(=O)N2C[C@@H](C(=O)N[C@H]3C[C@@H]3c3ccccc3)[C@H](C(=O)N[C@H]3C[C@@H]3c3ccccc3)C2)cc1)NC(=O)NCCCCC [Compound 137, (3S,4S)-1-(4-(((S)-3-(hexylamino)-3-oxo-2-(3-pentylureido)propyl)carbamoyl)benzoyl)-N3,N4-bis((1S,2R)-2-phenylcyclopropyl)pyrrolidine-3,4-dicarboxamide] | 51 to 350 nM | –
O=C(NC1CCCCCCC1)[C@H]1CCN(C(=O)c2ccc(C(=O)N3C[C@@H](C(=O)N[C@H]4C[C@@H]4c4ccccc4)[C@H](C(=O)N[C@H]4C[C@@H]4c4ccccc4)C3)cc2)C1 [Compound 003] | – | > 1000 nM
CCCCCCCCCC(=O)N1CCN(C(=O)c2ccc(C(=O)N3C[C@@H](C(=O)N[C@H]4C[C@@H]4c4ccccc4)[C@H](C(=O)N[C@H]4C[C@@H]4c4ccccc4)C3)cc2)CC1C(=O)NCCCCCC (stereo partly drawn) [Compound 064, (3S,4S)-1-(4-(4-decanoyl-3-(hexylcarbamoyl)piperazine-1-carbonyl)benzoyl)-N3,N4-bis((1S,2R)-2-phenylcyclopropyl)pyrrolidine-3,4-dicarboxamide] | – | 0.1 to 50 nM
CCCCCCCCN1CCN(C(=O)c2ccc(C(=O)N3C[C@@H](C(=O)N[C@H]4C[C@@H]4c4ccccc4)[C@H](C(=O)N[C@H]4C[C@@H]4c4ccccc4)C3)cc2)C[C@H]1C(=O)NCCCCCC [Compound 031] | – | > 1000 nM
CCCCCCCCCCCCCCC(=O)N[C@@H]1CCN(Cc2ccc(C(=O)N3C[C@@H](C(=O)N[C@H]4C[C@@H]4c4ccccc4)[C@H](C(=O)N[C@H]4C[C@@H]4c4ccccc4)C3)cc2)C1=O [Compound 126, (3S,4S)-1-(4-(((R)-2-oxo-3-pentadecanamidopyrrolidin-1-yl)methyl)benzoyl)-N3,N4-bis((1S,2R)-2-phenylcyclopropyl)pyrrolidine-3,4-dicarboxamide] | > 1000 nM | –
CCCCCCCN[C@H]1CN(C(=O)c2ccc(C(=O)N3C[C@@H](C(=O)N[C@H]4C[C@@H]4c4ccccc4)[C@H](C(=O)N[C@H]4C[C@@H]4c4ccccc4)C3)cc2)C[C@@H]1OCCCCCCC [Compound 089, (3S,4S)-1-(4-((3S,4S)-3-(heptylamino)-4-(heptyloxy)pyrrolidine-1-carbonyl)benzoyl)-N3,N4-bis((1S,2R)-2-phenylcyclopropyl)pyrrolidine-3,4-dicarboxamide] | > 1000 nM | –
CCCCCCCCCCNC(=O)C1CN(C(=O)c2ccc(C(=O)N3C[C@@H](C(=O)N[C@H]4C[C@@H]4c4ccccc4)[C@H](C(=O)N[C@H]4C[C@@H]4c4ccccc4)C3)cc2)CCN1C(=O)CCCCCCC (stereo partly drawn) [Compound 066, (3S,4S)-1-(4-(3-(decylcarbamoyl)-4-octanoylpiperazine-1-carbonyl)benzoyl)-N3,N4-bis((1S,2R)-2-phenylcyclopropyl)pyrrolidine-3,4-dicarboxamide] | – | 51 to 350 nM
CCCCCCNC(=O)C[C@@H](NC(=O)c1ccc(C(=O)N2C[C@@H](C(=O)N[C@H]3C[C@@H]3c3ccccc3)[C@H](C(=O)N[C@H]3C[C@@H]3c3ccccc3)C2)cc1)C(=O)NCCCCCC [Compound 117, (3S,4S)-1-(4-(((R)-1,4-bis(hexylamino)-1,4-dioxobutan-2-yl)carbamoyl)benzoyl)-N3,N4-bis((1S,2R)-2-phenylcyclopropyl) pyrrolidine-3,4-dicarboxamide] | > 1000 nM | –
CCCCCCC(=O)N[C@@H](CNC(=O)c1ccc(C(=O)N2C[C@@H](C(=O)N[C@H]3C[C@@H]3c3ccccc3)[C@H](C(=O)N[C@H]3C[C@@H]3c3ccccc3)C2)cc1)C(=O)NCCc1ccc(F)cc1 [Compound 129, (3S,4S)-1-(4-(((S)-3-((4-fluorophenethyl)amino)-2-heptanamido-3-oxopropyl)carbamoyl)benzoyl)-N3,N4-bis((1S,2R)-2-phenylcyclopropyl)pyrrolidine-3,4-dicarboxamide] | 51 to 350 nM | –
CCCCCCCCCCCCCCNC(=O)[C@@H]1CN(C(=O)c2ccc(C(=O)N3C[C@@H](C(=O)N[C@H]4C[C@@H]4c4ccccc4)[C@H](C(=O)N[C@H]4C[C@@H]4c4ccccc4)C3)cc2)C[C@H]1O (racemic) [Compound 045, (3S,4S)-1-(4-((3S*,4R*)-3-hydroxy-4-(tetradecylcarbamoyl)pyrrolidine-1-carbonyl)benzoyl)-N3,N4-bis((1S,2R)-2-phenylcyclopropyl)pyrrolidine-3,4-dicarboxamide] | – | 351 to 1000 nM
O=C(N[C@H]1C[C@@H]1c1ccccc1)[C@@H]1CN(C(=O)c2ccc(C(=O)N3C[C@@H](C(=O)N[C@@H]4C[C@H]4c4cccnc4)[C@H](C(=O)N[C@@H]4C[C@H]4c4cccnc4)C3)cc2)C[C@H]1C(=O)N[C@H]1C[C@@H]1c1ccccc1 (single isomer, unassigned) [Compound 095, (3S,4S)-1-(4-((3S,4S)-3,4-bis(((1S*,2R*)-2-(pyridin-3-yl)cyclopropyl)carbamoyl)pyrrolidine-1-carbonyl)benzoyl)-N3,N4-bis((1S,2R)-2-phenylcyclopropyl) pyrrolidine-3,4-dicarboxamide] | 351 to 1000 nM | –

Source: US11951094B2, “TLR2 modulator compounds, pharmaceutical compositions and uses thereof” (Axial Therapeutics, Inc., priority 2020, dated 2024)
